The results in this text go back to PMC11203575, “The First In Vivo Study Shows That Gyrophoric Acid Changes Behavior of Healthy Laboratory Rats” (International Journal of Molecular Sciences, 2024).

The assay concerns the target T1, human serum albumin (HSA) (Homo sapiens, UniProt P02768).
T1 construct: gene ALB; Albumin from human serum (A1887, Sigma Aldrich)
Description: intrinsic fluorescence quenching titration (Stern-Volmer), synchronous and 3D fluorescence. The conditions noted are these: read-out: KB × 10^6 (M^-1) (converted). In kind it is binding.

SMILES strings stand for the structures.

T1 sequence (P02768 25-609): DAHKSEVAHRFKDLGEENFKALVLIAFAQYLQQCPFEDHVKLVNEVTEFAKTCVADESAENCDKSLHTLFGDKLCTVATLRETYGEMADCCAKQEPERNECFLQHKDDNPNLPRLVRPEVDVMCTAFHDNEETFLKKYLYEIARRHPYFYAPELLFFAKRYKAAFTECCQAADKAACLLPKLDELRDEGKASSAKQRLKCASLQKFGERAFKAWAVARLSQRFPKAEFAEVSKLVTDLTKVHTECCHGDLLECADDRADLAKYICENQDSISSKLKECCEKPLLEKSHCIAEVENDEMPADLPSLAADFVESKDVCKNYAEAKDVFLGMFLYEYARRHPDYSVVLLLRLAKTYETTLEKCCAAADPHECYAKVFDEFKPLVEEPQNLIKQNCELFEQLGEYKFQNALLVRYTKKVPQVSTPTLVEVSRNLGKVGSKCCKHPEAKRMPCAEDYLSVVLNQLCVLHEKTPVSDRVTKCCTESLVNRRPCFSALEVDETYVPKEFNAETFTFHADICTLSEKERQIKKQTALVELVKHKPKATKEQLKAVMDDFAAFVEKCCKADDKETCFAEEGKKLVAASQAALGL

Take `Cc1cc(OC(=O)c2c(C)cc(OC(=O)c3c(C)cc(O)cc3O)cc2O)cc(O)c1C(=O)O` [GA, Gyrophoric acid]: the Kd is 559 nM.
